Test [1] deals with T1, IDO1 (Homo sapiens, UniProt P14902). Nature of the test: IDO1 Cellular Assay in HeLa Cells Stimulated with IFNγ. Conditions: IFNγ 100 ng/mL, 300 uM L-tryptophan, about 48 hours, read-out: IDO HeLa Cell Assay, IC50. Type of test: cell-based. As to the method:
Biological Assays IDO1 Cellular Assay in HeLa Cells Stimulated with IFNγ
HeLa cells were cultured in complete HeLa culture medium (90% EMEM, 10% heat-inactivated fetal bovine serum) and expanded to about 1×10^9 cells. The cells were then collected and frozen down at 1×10^7 cells/vial in 1 mL frozen medium (90% complete HeLa culture medium, 10% DMSO).
Compounds to be tested were serially diluted in ten 3-fold steps in DMSO starting from 10 mM DMSO stocks in Echo low volume plate(s). Compound dilutions or DMSO alone were then dispensed from the dilution plate(s) into Greiner black 384-well assay plate(s) (catalog #781086, 50 nL/well) using an Echo 550 acoustic liquid handler (Labcyte).
Frozen HeLa cells were thawed and transferred into HeLa assay medium (99% complete HeLa culture medium, 1% Pen/Strep) with 20 mL medium/vial of cells. The cells were spun down at 250 g in a table top centrifuge for 5 min and suspended in same volume of HeLa assay medium. The cells were then counted and adjusted to a density of 2×10^5 cells/mL in HeLa assay medium. Sterile L-tryptophan were added to the cells with final concentration of 300 uM L-tryptophan. A small aliquot (2 mL/plate) of HeLa cells were set aside and were not treated with IFNγ, to serve as the Max-E control.
HeLa cells with and without IFNγ were dispensed to the respective wells of 384-well assay plates containing the compounds. The plates were incubated for about 48 hours at a 37° C., 5% CO2 incubator. Afterwards, 12 μL of 0.5 M methyl isonipecotate in dimethyl sulfoxide were added into each well and the plates were sealed and incubated at 37° C. without CO2 overnight. The plates were centrifuged for 1 min at 200×g. The resulting fluorescence was measured in a Spectramax plate reader (Molecular Devices) with a 400 nm excitation filter and a 510 nm emission filter.
The fluorescence intensity of each well was corrected for the background observed in wells with non-IFNγ-treated cells and was expressed as a fraction of the intensity observed in wells of IFNγ-treated cells and DMSO only. Potencies were calculated by linear least squares fit to the four parameter logistic IC50 equation.

The target of test [2] is T1, IDO1. Nature of the test: IDO1 Human Whole Blood Assay. Format: cell-based. The arrangement: Human whole blood was drawn in sodium heparin coated tubes from healthy internal donors; from tissue; host or cells: Human whole blood from healthy donors, stimulated with LPS and IFNγ. Particulars: LPS and IFNγ 100 ng/mL, 18 h, kynurenine by LC/MS/MS. The method, then: IDO1 Human Whole Blood Assay
Compounds to be tested were serially diluted in ten 3-fold steps in DMSO starting from 10 mM. 3 µL of compound dilutions or DMSO alone were then dispensed from the dilution plate into a polypropylene 96-well assay plate containing 97 µL of RPMI medium using an Echo 555 acoustic liquid handler (Labcyte). LPS (lipopolysaccharide) and IFNγ was prepared in RPMI to a 10× of final conc. (1000 ng/mL), final concentration is 100 ng/mL.
Human whole blood was drawn in sodium heparin coated tubes from healthy internal donors. 240 µL of blood was transferred to each of the wells of a v-bottom 96 well plate. 30 µL of compound was transferred from intermediate dilution plate, and incubated for 15 min. 30 μL from stimulants was then transferred to blood and mixed thoroughly. Plate was covered with breathable membrane and incubated at 37° C. for overnight (18 h).
On day 2, isotope labeled standard solutions of kunurenine and tryptophan was made in water at 10× concentration and 30 µL was added to the blood at 3 µM final concentration. The assay plates were centrifuged at 300×G for 10 min with no brake to separate plasma from red blood cells. 60 µL of plasma samples was removed without disturbing red blood cells. Plasma was diluted with RPMI medium in 1:1 ratio and proteins were precipitated out with two volumes of Acetonitrile. The plates were centrifuged at 4000×G for 60 min. 20 µL of supernatant was carefully transferred to a 384 well plate containing 40 µL of 0.1% formic acid in water and analyzed by LC/MS/MS.
LC/MS/MS analyses were performed using Thermo Fisher's LX4-TSQ Quantum Ultra system. This system consists of four Agilent binary high-performance liquid chromatography (HPLC) pumps and a TSQ Quantum Ultra triple quadrupole MS/MS instrument. For each sample, 5 µL were injected onto an Atlantis T3 column (2.1 mm×150 mm, 3 µm particle size) from Waters. The mobile phase gradient pumped at 0.8 mL/min was used to elute the analytes from the column at 25° C. The elution started at 0% B increasing linearly to 25% B at 6.5 min, holding at 25% for 1 min, re-equilibrating to 10 min. Mobile phase A consisted of 0.1% formic acid in water. Mobile phase B consisted of 0.1% of formic acid in acetonitrile. Data was acquired in positive mode using a HESI interface. The operational parameters for the TSQ Quantum Ultra instrument were a spray voltage of 4000 V, capillary temperature of 380° C., vaporizer temperature 400° C., shealth gas 60 arbitrary units, Aux gas 20 arbitrary units, tube lens 85 and collision gas 1.2 mTorr. SRM (selected-reaction monitoring) chromatograms of kynurenine (Q1: 209.2>Q3:94.0) and internal standard (Q1: 215.3>Q3:98.2) were collected for 90 sec. The peak area was integrated by Xcalibur Quan software. The ratios between the kynurenine generated in the reaction and 2D6-Kynurenine spiked-in internal standard were used to generate percentage inhibition and IC50 values. Compounds were titrated and IC50's were calculated by 4 parameter sigmoidal curve fitting formula.

T1 sequence (P14902 whole entry): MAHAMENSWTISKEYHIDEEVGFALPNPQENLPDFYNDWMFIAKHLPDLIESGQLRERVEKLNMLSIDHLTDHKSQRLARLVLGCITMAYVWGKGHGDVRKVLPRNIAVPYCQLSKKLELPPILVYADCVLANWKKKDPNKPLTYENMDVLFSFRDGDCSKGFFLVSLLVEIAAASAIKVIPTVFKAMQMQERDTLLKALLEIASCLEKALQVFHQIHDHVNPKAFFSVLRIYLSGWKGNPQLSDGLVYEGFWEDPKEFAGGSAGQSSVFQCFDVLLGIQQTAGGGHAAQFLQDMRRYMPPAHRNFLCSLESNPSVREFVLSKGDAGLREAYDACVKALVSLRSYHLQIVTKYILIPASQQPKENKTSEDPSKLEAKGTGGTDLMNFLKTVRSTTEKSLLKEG

As to `N#Cc1cccc(C(=O)Nc2ccc(C3(c4nc5cc(C(F)(F)F)cnc5[nH]4)CCC3)cc2F)c1` [Example 19, 3-cyano-N-(2-fluoro-4-{1-[6-(trifluoromethyl)-3H-imidazo[4,5-b]pyridin-2-yl]cyclobutyl}phenyl) benzamide], the IC50 (as a rule, the concentration needed to halve the response being measured) was 0.944 nM at IDO1 [1] and 43.7 nM at IDO1 [2].
In the case of `O=C(Nc1ccc(C2(c3nc4ncc(C(F)(F)F)cc4[nH]3)CCC2)cc1)c1cccc(Cl)c1` [Example 1, 3-Chloro-N-(4-(1-(6-(trifluoromethyl)-1H-imidazo[4,5-b]pyridin-2-yl)cyclobutyl)phenyl)benzamide], the half-inhibitory concentration (IC50) at IDO1 [1] amounted to 1.53 nM; against IDO1 [2] it was 74.7 nM.
For `N#Cc1cccc(C(=O)Nc2ccc(C3(c4nc5cc(C#N)cnc5[nH]4)CCC3)cc2F)c1` [Example 17, 3-Cyano-N-(4-(1-(6-cyano-3H-imidazo[4,5-b]pyridin-2-yl)cyclobutyl)-2-fluorophenyl)benzamide], the values for the half-maximal inhibitory concentration (IC50) at IDO1 [1] and against IDO1 [2] were 1.71 nM and 118 nM, respectively.
The matching figures for `N#Cc1cccc(C(=O)Nc2ccc(C3(c4nc5ccc(C(F)(F)F)cc5[nH]4)CCC3)cc2)c1` [Example 7, 3-cyano-N-(4-{1-[6-(trifluoromethyl)-1H-benzimidazol-2-yl]cyclobutyl}phenyl)benz-amide]: 1.1 nM and 40.3 nM.
`O=C(Nc1ccc(C2(c3nc4ncc(Cl)cc4[nH]3)CC(F)(F)C2)cc1)c1cccc(Cl)c1` [Example 24, 3-Chloro-N-(4-(1-(6-chloro-1H-imidazo[4,5-b]pyridin-2-yl)-3,3-difluorocyclobutyl)phenyl)benzamide]: the results for the IC50 at IDO1 [1] and on IDO1 [2] were 1.85 nM and 120 nM, respectively.
Taken in the same sequence, the figures for `Cc1cc(OC(F)F)ncc1-c1ccc(C2(c3nc4cc(C(F)(F)F)cnc4[nH]3)COC2)cc1` [Example 44, 2-(3-{4-[6-(difluoromethoxy)-4-methylpyridin-3-yl]phenyl}oxetan-3-yl)-6-(trifluoromethyl)-3H-imidazo[4,5-b]pyridine] were 2.22 nM and 1660 nM.
Taken in the same sequence, the figures for `O=C(Nc1ccc(C2(c3nc4ncccc4[nH]3)CCC2)cc1)c1cccc(Cl)c1` [Example 5, N-(4-(1-(1H-imidazo[4,5-b]pyridin-2-yl)cyclobutyl)phenyl)-3-chlorobenzamide] were 2.85 nM and 192 nM.

These data come from patent publication US11208407B2, “Substituted phenyl compounds as indoleamine 2,3-dioxygenase (IDO) inhibitors” (Merck Sharp & Dohme Corp., priority 2017, dated 2021).
